Where two headings read alike, the source gives them in different places.
Columns and labels:
[1] = Dissolution time of mannitol forms in water; assay type: physicochemical; conditions: ratio 1:30 w/w with respect to water, 20° C.
Experimental: The filler is mannitol, preferably a form of spray dried mannitol. […] Accordingly, α form of spray dried mannitol is most preferred in accordance to the present invention. The α-form of mannitol has mean particle size diameter of about 150 micron and Haussner number of about 1.16, having dissolution time in water with a ratio of 1:30 with respect to water in w/w, not more than 5 seconds at 20° C. […] When the dissolution time of the α-form of spray dried mannitol is compared with the standard and granulated mannitol, it gave following gradation:—

[2] = cited from earlier work
human plasma protein = conditions: cited from earlier work

## OCC(O)C(O)C(O)C(O)CO (stereo not drawn) [Spray dried α-mannitol, 1,2,3,4,5,6-hexanehexol]
[1]
  dissolution time in water: 5 s
[1]; listed as α-form of mannitol
  dissolution time in water: not more than 5 seconds

## Nc1nnc(-c2cccc(Cl)c2Cl)c(N)n1 [Lamotrigine, 3,5-diamino-b-[2,3-dichlorophenyl]-1,2,4-triazine]
[2]; Lamotrigine alone
  average half life: approximately 24 hours
[2]; in vivo
  effect of food on bioavailability: not affected by food
[2]; used concurrently with phenytoin
  half life: approximately 7.2 hours
[2]; with Valproic Acid
  half life: approximately 59 hours
Human plasma protein; carbamazepine, phenytoin, phenobarbitol
  displacement of other anti-epileptic drugs from protein binding sites: does not displace
Human plasma protein
  bound to human plasma protein: approximately 55%

## OC[C@@H](O)[C@@H](O)[C@H](O)[C@H](O)CO [granulated mannitol]
[1]
  dissolution time in water: 100 s

## OC[C@@H](O)[C@@H](O)[C@H](O)[C@H](O)CO [standard mannitol]
[1]
  dissolution time in water: 35 s

Reference: patent US20080269223A1, “Mouth Dissolvable and Meltable, and Water Dispersable Delivery Formulation” (priority 2004, published 2008)
